In article PMC10793205, “Differential transmetallation of complexes of the anti-cancer thiosemicarbazone, Dp4e4mT: effects on anti-proliferative efficacy, redox activity, oxy-myoglobin and oxy-hemoglobin oxidation” (Chemical Science, 2023):

What was measured:
SK-N-MC and AsPC-1 cells = experiment: MTT cellular proliferation assay, values stated over both tumor cell-types; assay type: cell-based, human; conditions: for Mean therapeutic index: average of the therapeutic indices for SK-N-MC and AsPC-1 vs MRC-5, 72 h/37 °C
Protocol: (§1) The anti-proliferative activity of Dp4e4mT relative to its complexes with Fe(III), Co(III), Ni(II), Cu(II), Zn(II), Ga(III), and Pd(II) was examined over incubation periods of 24-, 48-, and 72 h/37 °C (Table 2). These studies were performed using human SK-N-MC neuroepithelioma and AsPC-1 pancreatic adenocarcinoma cells that we have previously examined to assay other ligands.[15,28,43]
(§2) To examine the selectivity of the Dp4e4mT complexes against neoplastic versus normal mortal cells, their anti-proliferative efficacy was compared to mortal MRC-5 fibroblasts after a 72 h/37 °C incubation (Table 3). […] To further examine selectivity, an in vitro therapeutic index was calculated as per our previous investigations.[28,57,59,66,67] This parameter is derived from the ratio of the IC50 of MRC-5 cells/IC50 of SK-N-MC or AsPC-1 cells; with high ratios indicating greater selective anti-proliferative activity against neoplastic cells (Table 3). The mean therapeutic index is the average of the therapeutic indices calculated for both tumor cell-types. […] The mean therapeutic index of Dp4e4mT exceeded that obtained for clinically trialed DpC (157), as well as that of Dp44mT (112) and DFO (6). […]
(§3) All cell lines were procured from the American Type Culture Collection (ATCC; Manassas, VA). The SK-N-MC neuroepithelioma cell line and the mortal MRC-5 fibroblasts were cultured in minimum essential medium (Sigma-Aldrich), while the AsPC-1 cell line was cultured in Roswell Park Memorial Institute 1640 medium (Thermo Fisher Scientific, MA, USA). Both media were supplemented with 10% fetal calf serum, non-essential amino acids (1 mM), sodium pyruvate (1 mM), L-glutamine (2 mM), penicillin (100 U/mL), streptomycin (100 U/mL), and Fungizone (0.5 µg/mL). Cells were maintained at 37 °C in an incubator under a humidified atmosphere with 5% CO 2, following established protocols. 11 Cellular Proliferation Assay
(§4) Cellular proliferation was evaluated through the established 3-(4,5-dimethylthiazol-2-yl)-2,5-diphenyltetrazolium bromide (MTT) proliferation assay, validated by viable cell counts.12 […]
(§5) Ligands and complexes were dissolved in DMSO to make a stock solution of 10 mM, subsequently diluted in culture media. For cell culture experiments, the DMSO's maximum concentration remained below 0.5% (v/v), with no discernible impact on proliferation.12 MTT […]
(§6) Trypan blue staining.12 Analysis of the data was executed employing MARS Data Analysis Software (BMG LabTech; version 3.30). The concentration of agents necessary to inhibit cellular proliferation by 50% (IC 50) was then calculated. […]

[1] = target: T1, oxy-Hb in intact human erythrocytes (Homo sapiens, UniProt P68871+P69905); experiment: Oxidation of oxy-Hb in intact human erythrocytes; assay type: cell-based; conditions: 10 μM, 3 h/37 °C
T1 construct: Physiologically, oxy-Hb is found in erythrocytes; endogenous in cells; host or cells: intact human erythrocytes from fresh blood of healthy donors
Protocol: Fig. 7 (A and B) Investigation of the effects of Dp4e4mT and its Fe(III), Co(III), Ni(II), Cu(II), Zn(II), Ga(III), and Pd(II) complexes versus DFO, Dp44mT, DpC and their Fe(III) complexes (10 μM) on met-Hb generation (% zero time) after an incubation of 1–3 h/20 °C with purified oxy-Hb (40 μM). (C) Investigation of the effects of Dp4e4mT and its Fe(III), Co(III), Ni(II), Cu(II), Zn(II), Ga(III), or Pd(II) complexes relative to the positive controls DFO, Dp44mT, DpC, and their Fe(III) complexes (10 μM) on oxy-Hb oxidation in intact human erythrocytes after a 3 h/37 °C incubation. Results are mean ± SD (3 experiments).
Physiologically, oxy-Hb is found in erythrocytes, and in the current investigation, the ligands and complexes (10 μM) were incubated with intact human erythrocytes for 3 h/37 °C to assess their effects on oxy-Hb oxidation (Fig. 7C). As expected from our previous studies,[28,39] […]
In experiments examining the activity of the agents, all complexes were dissolved in 1,2-propanediol, then diluted to 10 µM in PBS (pH 7.2). […]
1800; Shimadzu, Kyoto, Japan). Concentrations of met-Mb and met-Hb, as well as reduced-Mb and reduced-Hb, were determined at 409 nm and 435 nm, respectively. Concentrations of oxy-Mb and oxy-Hb were determined at 544 nm and 582 nm, respectively. 17 Oxidation of Oxy-Hb in Human Erythrocytes
Oxidation of oxy-Hb in human erythrocytes was performed by standard methods using fresh blood from healthy donors after collection in Vacutainer® collection tubes (BD, Plymouth, UK).8 Erythrocytes centrifuged (480 xg/5 min/4°C) and then washed in HBSS, and subsequently resuspended in this buffer. Incubation of the erythrocytes (15% hematocrit) in the absence or presence of the agents (10 μM) was performed for 3 h/37°C. The erythrocytes were […]

MRC-5 fibroblasts = experiment: MTT cellular proliferation assay, mortal MRC-5 fibroblasts; assay type: cell-based; conditions: 37 °C, mean ± SD (3 experiments)
Protocol: as §2, §3, §4, §5, §6

AsPC-1 cells = experiment: MTT cellular proliferation assay, AsPC-1 pancreatic adenocarcinoma cells; assay type: cell-based, human; conditions: for IC50: 37 °C, MTT, mean ± SD (3 experiments); for Therapeutic index AsPC-1: IC50 of MRC-5 cells/IC50 of AsPC-1 cells, 72 h/37 °C
Protocol: as §1, with “ligands.[15,28,43] […]” for “ligands.[15,28,43]”
as §3, §4, §5, §6

SK-N-MC cells = experiment: MTT cellular proliferation assay, SK-N-MC neuroepithelioma cells; assay type: cell-based, human; conditions: for IC50: SK-N-MC, 37 °C, MTT, mean ± SD (3 experiments); for Therapeutic index SK-N-MC: IC50 of MRC-5 cells/IC50 of SK-N-MC cells, 72 h/37 °C
Protocol: as §1, with “ligands.[15,28,43] […]” for “ligands.[15,28,43]”
as §3, §4, §5, §6

T1 sequence (P69905 2-142 limits assumed): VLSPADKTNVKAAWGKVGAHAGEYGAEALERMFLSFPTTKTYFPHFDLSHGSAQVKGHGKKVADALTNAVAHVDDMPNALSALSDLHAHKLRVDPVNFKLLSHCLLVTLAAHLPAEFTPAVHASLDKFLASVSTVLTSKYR
T1 sequence (P68871 2-147 limits assumed): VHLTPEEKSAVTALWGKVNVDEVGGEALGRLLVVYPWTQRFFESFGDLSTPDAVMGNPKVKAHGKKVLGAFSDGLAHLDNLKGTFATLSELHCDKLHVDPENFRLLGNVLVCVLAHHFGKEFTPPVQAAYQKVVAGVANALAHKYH

IC50 (SK-N-MC and AsPC-1 cells; Homo sapiens, SK-N-MC and AsPC-1, after 72 h, read-out: IC50 (range over both cell-types))	IC50 (AsPC-1 cells; Homo sapiens, ASPC1, AsPC-1, 24 h)	IC50 (AsPC-1 cells; Homo sapiens, ASPC1, AsPC-1, 48 h)	IC50 (AsPC-1 cells; Homo sapiens, ASPC1, AsPC-1, 72 h)	IC50 (SK-N-MC cells; Homo sapiens, 24 h)	IC50 (SK-N-MC cells; Homo sapiens, 48 h)	IC50 (SK-N-MC cells; Homo sapiens, 72 h)	IC50 (AsPC-1 cells; AsPC-1, 24 h)	IC50 (AsPC-1 cells; AsPC-1, 48 h)	IC50 (AsPC-1 cells; AsPC-1, 72 h)	IC50 (SK-N-MC cells; 24 h)	IC50 (SK-N-MC cells; 48 h)	IC50 (SK-N-MC cells; 72 h)	Compound	Mean therapeutic index (SK-N-MC and AsPC-1 cells)	oxy-Hb oxidation in erythrocytes versus the control (in words) [1]	IC50 (MRC-5 fibroblasts; Homo sapiens, MRC5, MRC-5, 72 h)	Therapeutic index AsPC-1 (AsPC-1 cells)	Therapeutic index SK-N-MC (SK-N-MC cells)	IC50 (MRC-5 fibroblasts; MRC-5, 72 h)
3070 to 8180 nM	> 100000 nM	22760 ± 84 nM	3070 ± 585 nM	> 100000 nM	45270 ± 61 nM	8180 ± 2460 nM	–	–	–	–	–	–	CC(=O)N(O)CCCCCNC(=O)CCC(=O)N(O)CCCCCNC(=O)CCC(=O)N(O)CCCCCN [DFO, desferrioxamine, reference compound]	6	did not induce any significant (p > 0.05) increase in oxy-Hb oxidation	28910 ± 101 nM	9	3	–
–	–	–	–	–	–	–	1140 ± 34 nM	44 ± 7 nM	3 ± 3 nM	516 ± 6 nM	34 ± 6 nM	4 ± 1 nM	CCN(C)C([S-])=NN=C(c1ccccn1)c1ccccn1.CCN(C)C([S-])=NN=C(c1ccccn1)c1ccccn1.[Cu+2] [[Cu(Dp4e4mT)2]]	99	negligible effects on oxy-Hb oxidation	–	113	85	342 ± 121 nM
